BigSolDB 2.1

Cc1cccc2sc(NN)nc12
solubility (mole fraction)
Conditions | 273.15 K | 278.15 K | 283.15 K | 288.15 K | 293.15 K | 298.15 K | 303.15 K | 308.15 K | 313.15 K | 318.15 K
in acetone | 0.00958 | 0.0118 | 0.0142 | 0.0172 | 0.0203 | 0.024 | 0.0285 | 0.0335 | 0.0391 | 0.0456
in ethanol | 0.000807 | 0.00103 | 0.00131 | 0.00165 | 0.00203 | 0.00252 | 0.00313 | 0.00377 | 0.0046 | 0.00555
in ethyl acetate | 0.00359 | 0.00453 | 0.00569 | 0.00696 | 0.00848 | 0.0101 | 0.0124 | 0.0147 | 0.0176 | 0.0209
in isopropanol | 0.000928 | 0.00123 | 0.00153 | 0.00191 | 0.00235 | 0.00288 | 0.00353 | 0.00429 | 0.00519 | 0.0062
in methanol | 0.000589 | 0.000758 | 0.00095 | 0.00119 | 0.00151 | 0.00185 | 0.00232 | 0.00284 | 0.00348 | 0.00422
in n-butanol | 0.00137 | 0.00168 | 0.00216 | 0.00263 | 0.00329 | 0.00403 | 0.00505 | 0.00616 | 0.00755 | 0.00904
in n-propanol | 0.00115 | 0.00143 | 0.00178 | 0.00218 | 0.00272 | 0.0033 | 0.00395 | 0.00481 | 0.00573 | 0.00696
in toluene | 0.00227 | 0.00276 | 0.00366 | 0.00473 | 0.00583 | 0.00736 | 0.00925 | 0.0116 | 0.0145 | 0.0178
in water | 7.03e-06 | 9.04e-06 | 1.18e-05 | 1.51e-05 | 1.96e-05 | 2.56e-05 | 3.21e-05 | 4.05e-05 | 5.05e-05 | 6.25e-05
